From patent publication US20240383845A1, “NAPHTHALENEDITHIOL AND DERIVATIVE THEREOF, AND PRODUCTION PROCESS AND USE FOR THE SAME” (SUGAI CHEMICAL INDUSTRY CO., LTD., priority 2021, published 2024)

Experiments:
[1] = Dissolubility or compatibility (maximum dissolved concentration, HPLC); type: physicochemical; details: 25° C.; for Dissolubility, MMA: methyl methacrylate; for Dissolubility, PGMEA: propylene glycol monomethyl ether acetate
Description: In more detail, the sample was added to a predetermined amount of a solvent or a polymerizable component until the sample was no longer dissolved, and the sample content of the liquid layer (the solvent layer) of the resulting mixture was analyzed using an HPLC (“SPD-20A” manufactured by SHIMADZU CORPORATION), and thus the concentration (the maximum dissolved concentration) of the sample in the liquid layer (the solvent layer) was determined as a solubility.

[2] = Refractive index (abbe refractometer); type: physicochemical; details: 25° C., 589 nm, value at 100% by mass by extrapolation
Description: The refractive index of each sample was measured using an abbe refractometer (“NAR-lT” manufactured by ATAGO CO., LTD.) at a temperature of 25° C. and a wavelength of 589 nm. Depending on the species of each sample, the refractive index was measured as follows.
For the after-mentioned 16NDSH, 15NDSH, 26NDSH and 27NDSH; 15DGNDSH; 15DHENDSH; 16DMNDSH and 15DMNDSH; and 16DCNDSH and 15DCNDSH, a sample was dissolved in 1,3-dimethyl-2-imidazolidinone (DMI) to prepare multiple solutions with different concentrations, and the refractive index of each solution was measured at a temperature of 25° C. and a wavelength of 589 nm. From the results of the refractive index at each concentration, the refractive index value at 100% by mass of the concentration was determined by extrapolation.
For the after-mentioned 16NDSHMA, 15NDSHMA, 26NDSHMA and 27NDSHMA; 16NDSHA and 15NDSHA; 15DANDSH; and 15DVNDSH, polymerization may occur during the mixing, and thus a sample was dissolved in a methoquinone/DMI solution (a solution containing 4000 ppm of methoquinone relative to the mass of DMI) to prepare multiple solutions with different concentrations. The refractive index of each solution was measured at a temperature of 25° C. and a wavelength of 589 nm. From the results of the refractive index at each concentration, the refractive index value at 100% by mass of the concentration was determined by extrapolation.
For the after-mentioned 16DANDSH; 16DVNDSH; 16DGNDSH; and 16DHENDSH, a sample was liquid for a while after preparation, and thus the refractive index was measured in the state of an undiluted solution. Further, thiol-ene-based resins (thiol-ene-based resins obtained from 16NDSH or 15NDSH and divinylbenzene) were measured in the same manner. […]

[3] = DMI solutions of different concentrations

melting point [°C]	Dissolubility, Ethyl acetate [1]	Dissolubility, MMA [1] [% by mass]	Dissolubility, PGMEA [1] [% by mass]	Dissolubility, Styrene [1] [% by mass]	Dissolubility, Toluene [1]	Refractive index ([2]; methoquinone/DMI solutions)	Refractive index [2, 3]	Dissolubility, DMF ([1]; N,N-dimethylformamide) [% by mass]	Dissolubility, Methanol ([1]; methanol) [% by mass]	Dissolubility, THF ([1]; tetrahydrofuran) [% by mass]	Compound
64 to 66	56.3 % by mass	55.7	44.3	59.4	58.4 % by mass	1.667					C=CC(=O)Sc1ccc2c(SC(=O)C=C)cccc2c1 [Example 16NDSHA, 1,6-bis(acryloylthio)naphthalene]
50 to 52	39.0 % by mass	43.6	26.3	45.8	59.6 % by mass	1.685					C=CSc1cccc2c(SC=C)cccc12 [Example 15DVNDSH, 1,5-bis(vinylthio)naphthalene]
52 to 53	Freely blended (>90) % by mass	62.3	42.3	68.7	Freely blended (>90) % by mass		1.690				CSc1ccc2c(SC)cccc2c1 [Example 16DMNDSH, 1,6-bis(methylthio)naphthalene]
196 to 197	0.65 % by mass		0.73		0.64 % by mass		1.718	3.54	0.11	4.03	Sc1ccc2cc(S)ccc2c1 [Example 26NDSH, 2,6-naphthalenedithiol]
